{
  "source": "paper PMC10816221",
  "about": "“A Versatile Aldehyde: Ferredoxin Oxidoreductase from the Organic Acid Reducing Thermoanaerobacter sp. Strain X514” (International Journal of Molecular Sciences, 2024)",
  "biological_target": "T1, AORX514 (AOR-His) (Thermoanaerobacter pseudethanolicus, UniProt B0K8P3)",
  "T1 construct": "gene Teth39_0850; full length, C-terminal 6xHis (plasmid pJM009), made in Thermoanaerobacter kivui MB014; W-containing, FeS cluster",
  "T1 sequence (B0K8P3 1-599)": "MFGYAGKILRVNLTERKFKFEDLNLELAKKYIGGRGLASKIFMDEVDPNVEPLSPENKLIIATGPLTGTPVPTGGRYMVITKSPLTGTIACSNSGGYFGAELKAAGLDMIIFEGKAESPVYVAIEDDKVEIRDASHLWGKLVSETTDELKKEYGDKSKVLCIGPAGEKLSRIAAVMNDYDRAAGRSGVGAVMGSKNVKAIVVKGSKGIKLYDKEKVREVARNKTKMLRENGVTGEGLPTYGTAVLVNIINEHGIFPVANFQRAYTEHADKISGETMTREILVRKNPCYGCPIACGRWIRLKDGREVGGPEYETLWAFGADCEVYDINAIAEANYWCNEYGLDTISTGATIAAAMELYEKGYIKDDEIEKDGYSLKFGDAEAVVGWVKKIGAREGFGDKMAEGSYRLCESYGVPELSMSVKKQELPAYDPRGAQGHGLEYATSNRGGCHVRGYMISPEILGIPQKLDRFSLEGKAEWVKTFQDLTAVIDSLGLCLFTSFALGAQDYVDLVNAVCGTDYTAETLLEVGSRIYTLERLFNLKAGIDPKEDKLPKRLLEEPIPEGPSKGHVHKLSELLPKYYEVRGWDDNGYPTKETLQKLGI",
  "assay": "acetaldehyde-dependent viologen reduction at […] nm; substrate inhibition kinetics",
  "type": "biochemical",
  "settings": "benzyl viologen as electron acceptor, routine assay 50 mM TRIS pH 7.5, 65 °C, anoxic",
  "data": [
    {"molecule": "CC=O", "note": "[Acetaldehyde]", "values": [
      {"measurement": "ki", "result": "8.7 ± 1.3", "unit": "mM"}
    ]}
  ]
}
